The record followed here is publication PMC8698672, “Selective Anticancer and Antimicrobial Metallodrugs Based on Gold(III) Dithiocarbamate Complexes” (Biomedicines, 2021).

SMILES strings stand for the structures.

Data set [1] concerns Undifferentiated Caco-2/TC7 cell. Put plainly: Apoptosis/necrosis, Annexin V-FITC / 7-AAD flow cytometry. The class given is cell-based, human. The conditions noted are these: 20 μM, 24 h. The protocol:
For the studies of apoptosis, using the detection of phosphatidylserine in the outer layer of the plasma membrane, an Annexin V-FITC Apoptosis Detection kit (Immunostep, Salamanca, Spain) was used. After incubation with the complexes, the cells were collected and transferred to flow-cytometry tubes. A negative control was prepared with untreated cells, which was used to define the basal level of apoptotic, necrotic, or dead cells. The staining with Annexin V-FITC and 7-Aminoactinomycin D (7-AAD) was performed according to the manufacturer’s recommendations. The cells were washed twice with temperate phosphate-buffered saline (PBS) and resuspended in 200 μL of 1x Annexin-binding buffer. After that, 2.5 μL Annexin V-FITC and 2.5 μL […] were added to each 50 μL of cell suspension. After incubation for 15 min at RT in the dark, 400 μL of 1× Annexin-binding buffer were added and analyzed by flow cytometry within 1 h. The signal intensity was measured using a Gallios Flow Cytometer (Beckman Coulter, Brea, CA, USA) and analyzed using the Kaluza Analysis Software (Beckman Coulter).
After obtaining great results from the cell viability studies, it was determined that only non-cytotoxic complexes on normal cells are good candidates as anticancer drugs, so complexes C1, C5, and C6 were selected for the following studies. Thus, we proceeded to elucidate the action mechanism of these three complexes to induce cell death. The most convenient cell death for anticancer drugs is apoptosis, since in this way no inflammation processes occur and it is carefully controlled. The apoptotic way is normally characterized by several morphological changes in the cell membrane, by which phosphatidylserine (PS) is exposed, moving from the inner part to the outer surface of the membrane. Thanks to this translocation, Annexin V (FITC-conjugated) can interact selectively with the PS, differentiating healthy cells from apoptotic cells. Besides, cells undergoing late apoptosis stages and necrotic cells present deep damage in the membrane that makes 7-aminoactinomycin D (7-AAD) access the nucleus. Therefore, by using flow cytometry, all different cell populations can be distinguished.
Figure 4 Undifferentiated Caco-2/TC7 cell apoptotic-state (a) and necrotic-state (b) analysis after 24 h of incubation with C1, C5, and C6 (20 µM).
In general terms: A flow cytometer gives signals particle by particle.

The next data set has as its system Caco-2 cells. In words: Cell cycle analysis, PI staining flow cytometry. The class given is cell-based, human. The conditions noted are these: 20 μM, 24 h. The protocol:
After incubation with the complexes, the cells were collected, washed twice with PBS, fixed in 70% ice-cold ethanol, and stored at 4 °C for 24 h. After centrifugation, cells were resuspended in PBS containing PI (50 μg/mL) and RNase A (100 μg/mL). After incubation for 30 min at RT in the dark, PI-stained cells were analyzed for DNA content in a Gallios Flow Cytometer (Beckman Coulter). […] Cell cycle distribution was determined on a linear scale. The percentage of cells in cycle phases was determined using the Kaluza Analysis Software (Beckman Coulter).
To stop the uncontrolled replication of tumor cells is still one of the main aims in the chemotherapy field; thus, arresting the tumor cell cycle in as many stages as possible is considered crucial. […] As is known, the geometry and structure of the complex have a great impact on the action mechanism of the drug, so there are examples of gold(III) complexes that alter the cell cycle at the G0/G1 phase, but also others at G2/M phase.
Figure 5 Cell population (%) in each stage of the cell cycle obtained by flow cytometry after 24 h of incubation of the cells with DMSO (control) and gold(III) complexes 1, 5, and 6 (20 μM).

The next data set has as its system Caco-2/TC7 cells. Put plainly: Oxidative stress damage, protein carbonyl levels (DNPH). The class given is cell-based, human. The conditions noted are these: 20 μM, 24 h. The protocol: Cell homogenates needed for this assay were prepared according to a previously described method. Protein oxidation was analyzed by carbonyl-level measurement as previously described. Cell homogenates were incubated with the classical carbonyl reagent 2,4-dinitrophenylhydrazine (DNPH), and protein carbonylation was measured spectrophotometrically at 375 nm. The results were calculated in nmol carbonyl groups mg^−1 protein.
According to the literature, gold complexes act as anticancer agents by the disruption of redox homeostasis. As a result, the concentration of ROS species rises and consequently, main biomolecules, such as lipids, proteins, or even DNA, can be oxidized. However, tumor cells present an overproduction of ROS species due to their high metabolism. The most common anticancer strategy is promoting a higher oxidative damage in biomolecules to trigger the apoptosis process. […] In this study, we evaluated the oxidation levels of the carbonyl groups present in proteins by the established method of 2,4-dinitrophenylhydrazine (DNPH).
Figure 6 Carbonyl levels (nmol mg^−1 protein) in Caco-2/TC7 cells treated with vehicle DMSO (control) or gold(III) complexes (24 h, 20 μM). Values are expressed as mean values ± SEM (n ≥ 6 experiments). ** p < 0.01; *** p < 0.001 vs. control.

A short description of data set [2]: Stability in the presence of reduced L-glutathione (GSH), UV–Vis. The data set is classed as physicochemical. The settings on record: GSH 0–50 µM, PBS, 37 °C, 24 h. The protocol:
The stability of the gold complexes was analyzed by absorption UV spectroscopy. UV–Vis absorption spectra of the complexes were recorded on a Thermo Scientific spectrophotometer (Madrid, Spain). Solutions of C1–6 (5 × 10^−5 M) in 10 mM phosphate buffer (pH = 7.4, 137 mM NaCl) were prepared from 20 mM DMSO solutions of the complexes and thereafter monitored by measuring the electronic spectra over 24 h at 37 °C. To evaluate the stability in the presence of biological reductants, all complexes were pre-solved in a minimum amount of DMSO and then diluted in 10 mM phosphate buffer (pH 7.4, 20 mM NaCl) to a final concentration of 10 µM [41]. All experiments were measure on a quartz microplate. Studies with L-glutathion reduced (GSH) and ascorbic acid (AsA) were conducted by increasing the final concentration of 0 to 50 µM (GSH) and from 0–20 µM for AsA.
This is usually associated with the formation of Au(III)-OH bonds, increasing the water solubility and, consequently, the intensity of absorbance. […] We observed that our complexes were stable with the addition of GSH over 24 h, even in a high excess of GSH to Au(III) complexes (50 vs. 16 µM) (Figure S4), since no evidence of decomposition or new bands was detected. […]

Turning to `Cc1ccc(-c2ccccn2)[c]([Au+][S]C(=S)N(C)C)c1.F[P-](F)(F)(F)(F)F` [Complex C1, [Au(tpy)(dmdtc)] PF6], in data set [1], the necrosis entry was “did not die because of necrosis” and the “percentage of cells in apoptosis vs control” value (“percentage of cells” below) is on record as “no significant differences”. Further, the “effect on cell cycle (cells in G0/G1, S, G2/M phases) vs control” value (shortened to “effect on cell cycle … vs control”) in the data set with Caco-2 cells is on record as “did not have a significant impact”. Also, the “oxidized protein (carbonyl) levels vs control” value (“oxidized protein … vs control” for short) with Caco-2/TC7 cells is “did not promote oxidative stress damage”.
`CN(C)C(=S)[S][Au+][c]1ccccc1-c1ccccn1.F[P-](F)(F)(F)(F)F` [Complex C2, [Au(ppy)(dmdtc)]PF6]: the “Stability towards GSH (UV–Vis spectra)” value in data set [2] is on record as “slight changes in intensity”.
On the same count and under the same terms, for `CCN(CC)C(=S)[S][Au+][c]1cc(C)ccc1-c1ccccn1.F[P-](F)(F)(F)(F)F` [Complex C3, [Au(tpy)(dedtc)]PF6] the value was “slight changes in intensity”.
With `Cc1ccc2[c](c1)[Au-]1([S]C(N(Cc3ccccc3)Cc3ccccc3)=[S+]1)[n+]1ccccc1-2.F[P-](F)(F)(F)(F)F` (centres unmarked) [Complex C5, [Au(tpy)(dbdtc)]PF6], in data set [1], the necrosis result is “did not die because of necrosis” and the “percentage of cells” value was “no significant differences”. Further, the “effect on cell cycle … vs control” value in the data set on Caco-2 cells was “did not have a significant impact”. In the data set on Caco-2/TC7 cells, the “oxidized protein … vs control” value was “did not promote oxidative stress damage”.
On to `F[P-](F)(F)(F)(F)F.S=C([S][Au+][c]1ccccc1-c1ccccn1)N(Cc1ccccc1)Cc1ccccc1` [Complex C6, [Au(ppy)(dbdtc)]PF6], for which, in data set [1], the necrosis result is given as “did not die because of necrosis” and the “percentage of cells” value is “no significant differences”. Further, in the data set with Caco-2 cells, the “effect on cell cycle … vs control” value was “did not have a significant impact”. Moreover, the “oxidized protein … vs control” value in the data set with Caco-2/TC7 cells is “did not promote oxidative stress damage”.
